Assay results as given in US12564580B2, “Mitochondria-targeted isoketal/isolevuglandin scavengers and uses thereof” (Vanderbilt University, priority 2020, dated 2026).

Assays:
[1] = test system: human aortic endothelial cells (HAEC); assay: Mitochondrial superoxide in human aortic endothelial cells stimulated with angiotensin II plus TNFα (mitoSOX HPLC); assay type: cell-based; details: 50 nM, angiotensin II plus TNFα for 4-hours
Procedure: FIGS. 9A and B show the effect of mito2HOBA on mitochondrial superoxide and cardiolipin oxidation in human aortic endothelial cells induced by angiotensin II plus TNFα. (A) Mitochondrial superoxide was measured by HPLC analysis of mitoSOX-superoxide specific product, mito-2-hydroxyethidium (Mito-2OH-Et+). […] (B) Cardiolipin oxidation induced by Angiotensin II+TNFα measured my LC/MS. […] Data are mean±SEM. *P<0.01 vs Control, **P<0.01 vs Angiotensin II+TNFα (n=4).
Human aortic endothelial cells (HAEC) were purchased from Lonza (Chicago, IL) and cultured in EGM-2 medium supplemented with 2% FBS but without antibiotics. On the day before the study, the FBS concentration was reduced to 1%.
We tested if mito2HOBA reduces mitochondrial oxidative stress in human aortic endothelial cells (HAEC) stimulated with angiotensin II plus TNFα for 4-hours (FIG. 9). Indeed, supplementation of HAEC with mito2HOBA (50 nM) reduced mitochondrial superoxide production stimulated by TNF[…] and Ang II as measured by accumulation of specific superoxide-MitoSOX product, 2-OH-Mito-Ethidium.

[2] = test system: SOD2 acetylation in human arterioles; assay: SOD2 acetylation in human arterioles treated ex vivo (Western blot); assay type: cell-based; details: arterioles from hypertensive subjects, 0.5 μM, 24 hours, DMEM
Procedure: FIGS. 8A-D show Western blots of mitochondrial isoLGs (A) in human arterioles from normotensive and hypertensive subjects (n=5), (B) development of mitochondria-targeted isoLG scavenger mito2HOBA and (C, D) SOD2 acetylation in human arterioles isolated from normotensive and hypertensive subjects and treated ex vivo with mito2HOBA (0.5 μM, 24 hours, DMEM). Data were normalized by Complex I levels (Sham is 100%). Data are mean±SEM. *P<0.01 vs Normotensive Sham, **P<0.01 vs Hypertensive (n=5).
Arterioles (100 to 200-μm diameter) were harvested from human mediastinal fat obtained from patients during cardiac surgery enrolled in the Risk of Oxygen during Cardiac Surgery (ROCS) randomized clinical trial with essential hypertension (BP>140/90 mmHg) and normotensive subjects as previously described for Western blot analysis of SOD2 and SOD2 acetylation. Full informed consent was obtained for all tissue samples.
Hypertension is associated with inactivation of mitochondrial deacetylase Sirt3 and hyperacetylation of mitochondrial superoxide dismutase (SOD2). To study the potential role of mitochondrial isoLGs in Sirt3 inactivation, we developed the mitochondria-targeted isoLG scavenger mito2HOBA (FIG. 8B). Mito2HOBA selectively accumulates in the mitochondria due to its lipophilic cation triphenylphosphonium. […]

[3] = test system: kidney mitochondria; assay: Respiration of kidney mitochondria from angiotensin II-infused mice (respiratory control ratio); assay type: in vivo, mouse; details: Ang II plus mito2HOBA
Procedure: FIGS. 13A-B show mito2HOBA reduces mPTP opening and prevents mitochondrial dysfunc¬tion. C57B1/6J mice were infused with Ang II ([…]) and mito2HOBA in the drinking water (0.1 g/L). Following 14 days of Ang II infusion the animals were sacrificed and kidneys were isolated for mitochondrial studies. Addition of CaCl2 to mitochondria above Ca2+ retention capacity led to mPTP opening and mitochondria swelling. 71 Mitochondria isolated from Ang II-infused mice had significant reduction in Ca2+ capacity due to increased mPTP opening and CypD inhibitor Cyclosporine A (CsA) rescued Ca2+ retention capacity (A). Respiratory control ratio (State 3/State 4) was measured in isolated kidney mitochondria with glutamate and malate (B). Control level is 100%. (C) Renal ATP was measured in freshly isolated tissue by luciferase-based luminescent assay. 72 Results are mean±SEM. *P<0.01 vs Sham, **P<0.01 vs Angiotensin II (n=5).
The following respiration medium was used (in mM): 125 mM KCl, 10 mM MOPS (pH 7.2), 2 mM MgCl2, 2 mM KH2PO4, 10 mM NaCl, 1 mM EGTA, 0.7 mM CaCl2, 10 mM glutamate and 2 mM malate. […] Respiratory control ratio was calculated as the rate ratio State 3 to State 4, where State 4 is the rate after ADP phosphorylation.

[4] = Reaction with the IsoLG analog 4-oxopentanal; assay type: physicochemical; details: % of 2HOBA itself
From the text: In order to confirm the IsoLG scavenging properties of mito2HOBA, the present inventors studied its reaction with the IsoLG analog 4-oxopentanal as the present inventors described previously. Mito2HOBA was highly reactive with 4-oxopentanal with a reaction rate constant that was about 50% of 2HOBA itself (Supplemental FIG. 1S). […] The overall rate of IsoLG scavenging in physiological conditions depends both on the rate constant and the local concentration of the scavenger (V=k*[mito2HOBA]*[IsoLG]). […] This will result in low level of mito2HOBA in cytoplasm but high mitochondrial accumulation leading to specific scavenging of IsoLG in mitochondria (FIG. 3).

[5] = test system: LPS-injected C57BL/6J mice; assay: Survival in LPS model of sepsis; assay type: in vivo, mouse
From the text: All experimental procedures were approved by Vanderbilt and Mercer Institutional Animal Care and Use Committees. The use of LPS is well-established model of bacterial sepsis in rodents (1-3). The concentrations of LPS that can be used to induce sepsis in mice depend on many factors (source of LPS, age/size, and strains of animals, desired time of response, target of interest, etc.) and may vary between different manufactures. To test the protective properties of mito2HOBA, the present inventors used LPS from E. coli O111:B4 (Sigma L8274). […] The same lot of LPS was used throughout entire study.

In the case of `NCc1ccc(OCCCC[P+](c2ccccc2)(c2ccccc2)c2ccccc2)cc1O` [mito2HOBA], the mitochondrial superoxide production [1] is reported as “reduced”, the SOD2 acetylation [2] is reported as “significantly reduced” and the “mitochondrial respiration supported by glutamate plus malate” value [3] is reported as “preserved”. For the same compound, the “reaction rate constant with 4-oxopentanal relative to 2HOBA” value [4] was “about 50%”, the “increase of animal survival” value ([5]; 96 hours post-injection of LPS 25 μg/g, mito2HOBA 0.1 g/L drinking water) was 3 fold and the “reduction of animal immediate and extended mortality” value ([5]; LPS model of sepsis, mito2HOBA supplementation) was 3 fold.
